Data set [1] relates to psoriasiform pathological change in aural region of guinea pigs. The data set is described as follows: Pharmacodynamic test, psoriasis vulgaris model induced by 5% propranolol emulsion on guinea pig ears; Baker pathologic scores. Format: in vivo. As to conditions: 14 days; for Pathology of lesional tissue after administration (light microscope): guinea pig ear, HE stain; for Baker scores compared with model group: P<0.01.
Description: 60 guinea pigs adapted to diet one week before initiation of experimentation, and both ears of guinea pigs were unhaired, and randomly divided into blank group and experimental group, with 12 guinea pigs for blank group and 48 guinea pigs for experimental group. In experimental group, 5% propranolol dinitrate emulsion was evenly applied to bilateral ear back of guinea pigs, while in blank group, blank medium was applied for 14 days, with a thickness of about 1.0 mm for each time and 4 times per day, to induce pathologic change of psoriasis vulgaris-appearing. […] Based on body weight and conditions of establishing model, the remaining 44 guinea pigs were divided into 4 groups using random digits table, i.e. model group, positive group, low-dose group of chlorogenic acid, high-dose group of chlorogenic acid, 11 guinea pigs for each group.
After administrating for 14 days, samples were taken, and 12% chloral hydrate was peritoneally injected at a dose of 0.35 mL/100 g. After anesthesia, blood sample was collected from abdominal aorta, and animals were sacrificed. Both ear tissues of guinea pigs were scissored and fixed in 10% formaldehyde solution. Ear tissues of guinea pigs were taken out, embedded in paraffin, sliced, normally stained with HE, and sealed with neutral gum. Pathological change of ears was observed under optical microscope, investigated and taken a picture in 10×20 vision. Referring to Baker method, pathologic scores of tissues were assessed: the presence of Munro microabscess in corneum layer scores 2.0 point; hyperkeratosis scores 0.5 point; parakeratosis scores 1.0 point; stratum granulosum thinning and disappearing scores 1.0 point; acanthosis scores 1.0 point; skin process extension and tortuous basal lamina are marked 0.5, 1.0, 1.5 according to light, middle, and heavy degrees, respectively; mononuclear cells and polymorphonuclear cells infiltration in dermis is marked 0.5, 1.0, 1.5 according to light, middle, and heavy degrees, respectively; obvious mastoid extrusion scores 0.5 point; telangiectasis in superficial layer of dermis scores 0.5 point.

On the set-up of data set [2]: species or system guinea pigs. As to conditions: guinea pig, in vivo. Here is the method:
0.9% sodium chloride solution was administrated to blank group and model group; Positive drug control group was given suspension of acitretin A capsule at 2.25 mg/kg, and the amount of intragastric administration is all 1 mL/100 g for each time, twice a day; 20 mg/kg chlorogenic acid was administrated to the low-dose group by intramuscular injection, and 40 mg/kg chlorogenic acid was administrated to the high-dose group by intramuscular injection, using a volume of 0.2 ml/10 g, once a day.
Before guinea pigs were sacrificed, blood was drawn via peritoneal cavity, and urea nitrogen and creatinine were detected by enzymic method, while glutamate pyruvate transaminase and glutamic-oxalacetic transaminase were tested using rate method.

Data set [3] deals with polymorphonuclear leukocytes (PMN). The data set is described as follows: PMN transport into zymosan A-soaked gelatin sponge in peritoneal cavity of mice (psoriasis pustulosa test). Format: in vivo, Kunmin mice. Here is the method: Kunmin mice were randomly divided into 3 groups. Blank control group: according to body weight, about 0.5 ml of peanut oil was administrated to mice by gavage everyday; for high-dose group of chlorogenic acid (20 mg·kg^−1), chlorogenic acid was administrated to each mouse at a dose of 0.4 ml/20 g by peritoneal injection; for low-dose group of chlorogenic acid (10 mg·kg^−1), chlorogenic acid was administrated to each mouse at a dose of 0.4 ml/20 g by peritoneal injection. Following phasic points were observed, i.e. before administration (day 0), days 1, 2, 4, 6 after administration.
After a piece of sterile gelatin sponge (1 cm^2) was immersed in 0.75% zymosan A for 30 min, it was placed in peritoneal cavity of mice by surgery, and mice received standard diet. 24 hours after surgery, 5 mice of same phasic point were decapitated, and the gelatin sponges were taken out and stored in 0.5 ml cell eluant for culturing 30 min at 37 ° C., respectively. The gelatin sponges were washed with 0.01 mol/LPBS0.5 ml thrice, respectively, and the eluant was collected, passed through 40 μm nylon screen cloth, centrifuged, and the volume was 0.5 ml. Cells in above eluants were counted by automatic blood cell counter, and the amount of polymorphonuclear leukocytes (PMN) was read.

We go through 2 compounds from patent US20170296500A1, “Uses of Chlorogenic Acid in the Preparation of Medicaments for Treatment of Psoriasis” (SICHUAN JIUZHANG BIOLOGICAL SCIENCE AND TECHNOLOGY CO., LTD, priority 2014, published 2017).

Molecules are shown by their SMILES. Read-outs that look alike come from different tables or passages of the source.

In the case of `O=C(/C=C/c1ccc(O)c(O)c1)O[C@@H]1C[C@](O)(C(=O)O)C[C@@H](O)[C@H]1O` [chlorogenic acid], the “Pathology of lesional tissue after administration (light microscope)” value in data set [1] (chlorogenic group 20 and 40 mg/kg i.m.) was “obvious improvement”. Besides, the “Baker scores compared with model group” value in data set [1] (guinea pigs, 20 and 40 mg/kg intramuscular injection once a day) is recorded as “significantly different”. Further, the “Baker score of low-dose group (20 mg/kg) relative to high-dose group (40 mg/kg)” value in data set [1] (guinea pigs, intramuscular injection once a day, not dose-dependent) is “superior”. Further, the ALT amounted to 33.40 ± 7.26 u/L in data set [2] (20 mg/kg) and 32.30 ± 6.07 u/L in data set [2] (40 mg/kg). The AST came to 29.10 ± 7.29 u/L in data set [2] (20 mg/kg) and 24.80 ± 2.57 u/L in data set [2] (40 mg/kg). In addition, the Serum creatinine in data set [2] (20 mg/kg) worked out at 88.33 ± 7.80 µmol/L; in data set [2] (40 mg/kg) it was 87.27 ± 4.67 µmol/L. In addition, the Urea nitrogen in data set [2] (20 mg/kg) was 4.92 ± 0.63 mmol; in data set [2] (40 mg/kg), 4.98 ± 0.71 mmol. In data set [3] (10 and 20 mg/kg peritoneal injection), the “Chemotactic activity of PMN in mice” value was “significantly reduce”. Besides, the PMN transport numbers is 7.60 ± 6.07 ×10^9/L in data set [3] (high dose group 20 mg/kg peritoneal injection, Day 0 (before administration)); 1.54 ± 0.26 ×10^9/L in data set [3] (high dose group 20 mg/kg peritoneal injection, Day 1); 1.20 ± 2.14 ×10^9/L in data set [3] (high dose group 20 mg/kg peritoneal injection, Day 2); 1.15 ± 0.89 ×10^9/L in data set [3] (high dose group 20 mg/kg peritoneal injection, Day 4); 1.10 ± 1.29 ×10^9/L in data set [3] (high dose group 20 mg/kg peritoneal injection, Day 6); 6.98 ± 1.71 ×10^9/L in data set [3] (low dose group 10 mg/kg peritoneal injection, Day 0 (before administration)). The PMN transport numbers in data set [3] (low dose group 10 mg/kg peritoneal injection, Day 1) is on record as 4.92 ± 2.63 ×10^9/L; in data set [3] (low dose group 10 mg/kg peritoneal injection, Day 2) it was 2.67 ± 1.33 ×10^9/L; in data set [3] (low dose group 10 mg/kg peritoneal injection, Day 4), 1.98 ± 0.90 ×10^9/L; in data set [3] (low dose group 10 mg/kg peritoneal injection, Day 6), 1.62 ± 0.58 ×10^9/L. The “Inhibitory action on chemotactic activity of PMN, high dose group (20 mg/kg) compared with low dose group (10 mg/kg)” value in data set [3] (peritoneal injection) was “stronger inhibitory action”.

For `COc1cc(C)c(/C=C/C(C)=C/C=C/C(C)=C/C(=O)O)c(C)c1C` [Acitretin A capsule, Acitretin A, reference compound], the “Pathology of lesional tissue after administration (light microscope)” value in data set [1] (positive group 2.25 mg/kg intragastric twice a day) is given as “obvious improvement”. Moreover, the “Baker scores compared with model group” value in data set [1] (guinea pigs, positive group 2.25 mg/kg intragastric twice a day) is reported as “significantly different”.
